From patent US20070142478A1, “COMBINATION ANTIMICROBIAL COMPOSITION AND METHOD OF USE” (priority 2005, published 2007)
“Also recorded” adds a separate entry of the source.

Legend:
Aspergillus = conditions: 0.02%; cited from earlier work
Adenovirus Type-4 = experiment: Viral Suspension Assay, Adenovirus Type-4; assay type: cell-based
Procedure: (§1) The Viral Suspension Assay was used to evaluate the antiviral properties of Alexidine against Adenovirus Type-4, Adenovirus Type-8 and Adenovirus Type-19 and Cytomegalovirus when exposed in suspension for 1, 2, 5, and 10 minutes. The presence of virus (infectivity) was determined by monitoring the virus specific cytopathic effect (CPE) on an appropriate indicator cell line, rabbit kidney. Results are reported as Percent (%) Reduction in virus titer as compared to the corresponding virus control titer (Table 1). The titer of the virus controls were 7.5 log10 following the one minute exposure time; 7.0 log10 following the two minute exposure time; and 7.75 log10 following both the five and ten minute exposure times.

[1] = tested on: Herpes simplex virus type 1; experiment: Viral Suspension Assay, HSV-1; assay type: cell-based; conditions: 30 ppm and 99 ppm
Procedure: as §1, with “Herpes simplex virus type 1” for “Adenovirus Type-4, Adenovirus Type-8 and Adenovirus Type-19 and Cytomegalovirus”

Adenovirus Type-8 = experiment: Viral Suspension Assay, Adenovirus Type-8; assay type: cell-based
Procedure: as §1

Adenovirus Type-19 = experiment: Viral Suspension Assay, Adenovirus Type-19; assay type: cell-based
Procedure: as §1

Cytomegalovirus = experiment: Viral Suspension Assay, Cytomegalovirus; assay type: cell-based; conditions: 30 ppm and 99 ppm
Procedure: as §1

Row | Compound | Effectiveness in experimental Aspergillus keratitis (in words) (Aspergillus) | Effectiveness against Adenovirus Type-4 (in words) (Adenovirus Type-4; 30 ppm and 99 ppm) | Percent Reduction (%) (Adenovirus Type-4; Alexidine 30 ppm, 1 minute) | Percent Reduction (%) (Adenovirus Type-4; Alexidine 30 ppm, 10 minutes) | Percent Reduction (%) (Adenovirus Type-4; Alexidine 99 ppm, 1 minute) | Percent Reduction (%) (Adenovirus Type-4; Alexidine 99 ppm, 5 minutes) | Percent Reduction (%) (Adenovirus Type-4; Alexidine 99 ppm, 10 minutes) | Effectiveness against HSV-1 (in words) [1] | Effectiveness against Adenovirus Type-8 (in words) (Adenovirus Type-8; 30 ppm and 99 ppm) | Percent Reduction (%) (Adenovirus Type-8; Alexidine 30 ppm, 10 minutes) | Percent Reduction (%) (Adenovirus Type-8; Alexidine 99 ppm, 5 minutes) | Percent Reduction (%) (Adenovirus Type-8; Alexidine 99 ppm, 10 minutes) | Percent Reduction (%) (Adenovirus Type-19; Alexidine 30 ppm and 99 ppm, 1, 2, 5 and 10 minutes) | Effectiveness against Adenovirus Type-19 (in words) (Adenovirus Type-19; particular strain tested) | Effectiveness against Cytomegalovirus (in words) (Cytomegalovirus)
1 | polyhexamethylene biguanide | moderately effective |  |  |  |  |  |  |  |  |  |  |  |  |  | 
2 | CCCCC(CC)CNC(=N)NC(=N)NCCCCCCNC(=N)NC(=N)NCC(CC)CCCC (stereo not drawn) [Alexidine, 1,1′-hexamethylene-bis[5-(2-ethylhexyl)biguanide]] |  | somewhat effective | 43.8 | 68.4 | 68.4 | 43.8 | 68.4 | effective agents; also recorded: potent antimicrobial agent | somewhat effective | 90.0 | 90.0 | 90.0 | No reduction | did not appear to be effective | somewhat effective
